# Test results reported in patent US20100137449A1, “SUBSTITUTED 1,3-CYCLOPENTADIONE MULTI-TARGET PROTEIN KINASE MODULATORS OF CANCER, ANGIOGENESIS AND THE INFLAMMATORY PATHWAYS ASSOCIATED THEREWITH” (METAPROTEOMICS, LLC, priority 2007, published 2010).
# Assays:
# Test in all cases: KinaseProfiler Assay
# PKBγ(h) = PKBγ(h) (Homo sapiens, UniProt Q9Y243)
# Rsk3(h) = Rsk3(h) (Homo sapiens, UniProt Q15349)
# TrkA(h) = TrkA(h) (Homo sapiens, UniProt P04629)
# MAPK1(h), ERK1 = MAPK1(h), ERK1 (Homo sapiens, UniProt P27361)
# Sequence of MAPK1(h), ERK1 (P27361 whole entry): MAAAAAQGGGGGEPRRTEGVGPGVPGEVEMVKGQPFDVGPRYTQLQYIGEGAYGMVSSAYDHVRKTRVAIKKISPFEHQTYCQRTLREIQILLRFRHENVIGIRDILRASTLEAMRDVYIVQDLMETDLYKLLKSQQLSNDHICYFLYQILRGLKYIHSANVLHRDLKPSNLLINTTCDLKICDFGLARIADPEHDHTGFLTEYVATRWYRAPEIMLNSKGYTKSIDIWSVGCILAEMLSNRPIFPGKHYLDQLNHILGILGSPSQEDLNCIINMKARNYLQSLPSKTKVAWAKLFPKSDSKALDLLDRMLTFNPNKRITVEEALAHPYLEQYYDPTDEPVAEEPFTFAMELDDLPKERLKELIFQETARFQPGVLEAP
# MuSK(h) = target: T1, MuSK(h) (Homo sapiens, UniProt O15146)
# T1 sequence (O15146 24-869): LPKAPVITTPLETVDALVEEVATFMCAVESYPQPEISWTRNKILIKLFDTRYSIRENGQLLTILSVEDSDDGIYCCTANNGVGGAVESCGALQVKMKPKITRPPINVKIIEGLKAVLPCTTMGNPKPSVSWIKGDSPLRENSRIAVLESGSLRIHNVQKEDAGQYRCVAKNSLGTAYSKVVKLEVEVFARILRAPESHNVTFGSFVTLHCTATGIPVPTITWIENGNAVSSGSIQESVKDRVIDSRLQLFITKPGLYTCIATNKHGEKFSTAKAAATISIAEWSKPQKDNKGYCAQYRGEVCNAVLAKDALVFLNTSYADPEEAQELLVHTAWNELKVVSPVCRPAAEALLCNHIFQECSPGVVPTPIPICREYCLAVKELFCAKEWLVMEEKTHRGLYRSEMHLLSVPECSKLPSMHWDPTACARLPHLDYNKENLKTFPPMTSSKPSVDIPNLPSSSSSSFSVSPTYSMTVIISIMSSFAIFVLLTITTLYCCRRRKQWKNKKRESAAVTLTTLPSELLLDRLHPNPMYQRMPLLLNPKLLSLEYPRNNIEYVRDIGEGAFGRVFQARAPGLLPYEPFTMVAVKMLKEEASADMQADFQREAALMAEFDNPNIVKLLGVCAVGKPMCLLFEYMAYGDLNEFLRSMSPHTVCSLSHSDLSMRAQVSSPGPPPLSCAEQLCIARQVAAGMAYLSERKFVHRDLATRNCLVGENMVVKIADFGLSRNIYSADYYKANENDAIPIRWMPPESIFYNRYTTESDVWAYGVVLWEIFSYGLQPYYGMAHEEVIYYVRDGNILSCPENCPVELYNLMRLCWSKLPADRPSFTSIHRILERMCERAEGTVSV
# CaMKIIβ(h) = CaMKIIβ(h) (Homo sapiens, UniProt Q13554)
# Sequence of CaMKIIβ(h) (Q13554 whole entry): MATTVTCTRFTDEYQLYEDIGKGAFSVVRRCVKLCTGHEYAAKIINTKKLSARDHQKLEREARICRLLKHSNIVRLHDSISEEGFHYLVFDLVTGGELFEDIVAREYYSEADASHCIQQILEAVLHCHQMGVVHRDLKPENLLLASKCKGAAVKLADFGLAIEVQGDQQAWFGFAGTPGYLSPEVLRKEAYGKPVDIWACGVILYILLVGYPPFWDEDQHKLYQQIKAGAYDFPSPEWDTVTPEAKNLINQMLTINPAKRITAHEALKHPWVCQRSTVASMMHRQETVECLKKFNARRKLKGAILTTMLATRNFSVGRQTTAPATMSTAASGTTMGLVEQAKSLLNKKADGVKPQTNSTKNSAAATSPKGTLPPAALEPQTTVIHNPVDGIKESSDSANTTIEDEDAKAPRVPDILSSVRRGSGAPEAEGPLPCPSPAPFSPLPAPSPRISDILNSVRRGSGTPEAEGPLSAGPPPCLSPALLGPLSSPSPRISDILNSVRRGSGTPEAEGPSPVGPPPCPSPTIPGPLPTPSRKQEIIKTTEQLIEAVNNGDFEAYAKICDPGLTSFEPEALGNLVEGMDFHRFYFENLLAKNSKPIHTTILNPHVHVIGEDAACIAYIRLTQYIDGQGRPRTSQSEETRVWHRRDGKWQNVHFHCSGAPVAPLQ
# PKG1α(h) = target: T2, PKG1α(h) (Homo sapiens, UniProt Q13976)
# T2 sequence (Q13976 1-671): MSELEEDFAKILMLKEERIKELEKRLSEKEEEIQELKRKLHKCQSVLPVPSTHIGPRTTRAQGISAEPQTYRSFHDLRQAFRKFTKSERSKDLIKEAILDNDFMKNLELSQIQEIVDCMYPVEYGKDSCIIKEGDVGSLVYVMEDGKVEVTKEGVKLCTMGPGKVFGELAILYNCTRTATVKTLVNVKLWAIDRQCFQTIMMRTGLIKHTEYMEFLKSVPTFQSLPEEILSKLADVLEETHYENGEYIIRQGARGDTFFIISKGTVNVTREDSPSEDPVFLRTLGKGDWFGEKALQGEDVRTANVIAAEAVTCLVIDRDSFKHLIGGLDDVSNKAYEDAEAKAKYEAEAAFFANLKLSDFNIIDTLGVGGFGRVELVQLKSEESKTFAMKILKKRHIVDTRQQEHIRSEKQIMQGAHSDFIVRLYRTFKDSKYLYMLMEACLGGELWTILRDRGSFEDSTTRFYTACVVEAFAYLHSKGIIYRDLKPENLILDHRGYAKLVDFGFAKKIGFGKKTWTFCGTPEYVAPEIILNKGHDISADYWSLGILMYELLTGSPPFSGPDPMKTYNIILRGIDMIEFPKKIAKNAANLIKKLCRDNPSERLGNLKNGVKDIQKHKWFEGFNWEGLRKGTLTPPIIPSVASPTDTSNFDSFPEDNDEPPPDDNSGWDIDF
# Sequence of TrkA(h) (P04629 33-796): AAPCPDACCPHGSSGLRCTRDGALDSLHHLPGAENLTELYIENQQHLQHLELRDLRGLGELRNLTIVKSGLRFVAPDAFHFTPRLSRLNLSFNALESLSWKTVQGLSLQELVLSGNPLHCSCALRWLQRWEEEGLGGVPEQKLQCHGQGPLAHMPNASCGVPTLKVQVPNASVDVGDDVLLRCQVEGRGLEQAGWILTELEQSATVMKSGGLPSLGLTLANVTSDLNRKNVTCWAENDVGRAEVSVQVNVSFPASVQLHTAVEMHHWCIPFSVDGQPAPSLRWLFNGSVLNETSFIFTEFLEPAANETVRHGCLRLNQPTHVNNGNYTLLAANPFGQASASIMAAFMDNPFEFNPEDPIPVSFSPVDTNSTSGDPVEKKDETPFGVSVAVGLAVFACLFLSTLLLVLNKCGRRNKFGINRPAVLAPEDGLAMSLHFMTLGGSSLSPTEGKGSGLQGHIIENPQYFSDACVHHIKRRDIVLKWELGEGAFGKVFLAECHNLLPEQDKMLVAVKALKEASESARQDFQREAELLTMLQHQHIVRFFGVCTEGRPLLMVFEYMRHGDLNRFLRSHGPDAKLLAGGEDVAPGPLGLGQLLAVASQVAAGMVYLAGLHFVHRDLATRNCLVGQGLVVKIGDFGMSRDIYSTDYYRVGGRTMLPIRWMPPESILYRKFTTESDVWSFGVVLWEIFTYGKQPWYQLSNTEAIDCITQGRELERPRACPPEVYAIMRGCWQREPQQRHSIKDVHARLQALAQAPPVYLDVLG
# Sequence of Rsk3(h) (Q15349 whole entry): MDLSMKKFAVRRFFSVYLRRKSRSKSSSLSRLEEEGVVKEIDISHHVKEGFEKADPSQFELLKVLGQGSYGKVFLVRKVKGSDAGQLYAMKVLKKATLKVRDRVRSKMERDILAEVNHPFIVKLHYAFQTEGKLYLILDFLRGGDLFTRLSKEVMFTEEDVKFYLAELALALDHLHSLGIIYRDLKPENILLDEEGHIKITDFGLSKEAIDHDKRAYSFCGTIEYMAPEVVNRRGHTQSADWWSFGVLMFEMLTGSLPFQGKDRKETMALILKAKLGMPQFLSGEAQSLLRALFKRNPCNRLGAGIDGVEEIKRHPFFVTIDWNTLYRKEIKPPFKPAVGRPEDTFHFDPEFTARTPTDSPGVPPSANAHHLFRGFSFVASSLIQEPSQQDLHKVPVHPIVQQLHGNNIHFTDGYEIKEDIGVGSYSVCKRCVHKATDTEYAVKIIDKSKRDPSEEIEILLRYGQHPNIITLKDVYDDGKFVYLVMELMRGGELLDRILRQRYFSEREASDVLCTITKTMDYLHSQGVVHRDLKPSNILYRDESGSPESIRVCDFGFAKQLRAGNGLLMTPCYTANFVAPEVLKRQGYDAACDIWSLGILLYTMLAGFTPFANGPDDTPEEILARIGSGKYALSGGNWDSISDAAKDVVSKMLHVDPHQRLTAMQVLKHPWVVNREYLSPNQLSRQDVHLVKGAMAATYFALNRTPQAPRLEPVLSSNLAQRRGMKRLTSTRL
# Sequence of PKBγ(h) (Q9Y243 whole entry): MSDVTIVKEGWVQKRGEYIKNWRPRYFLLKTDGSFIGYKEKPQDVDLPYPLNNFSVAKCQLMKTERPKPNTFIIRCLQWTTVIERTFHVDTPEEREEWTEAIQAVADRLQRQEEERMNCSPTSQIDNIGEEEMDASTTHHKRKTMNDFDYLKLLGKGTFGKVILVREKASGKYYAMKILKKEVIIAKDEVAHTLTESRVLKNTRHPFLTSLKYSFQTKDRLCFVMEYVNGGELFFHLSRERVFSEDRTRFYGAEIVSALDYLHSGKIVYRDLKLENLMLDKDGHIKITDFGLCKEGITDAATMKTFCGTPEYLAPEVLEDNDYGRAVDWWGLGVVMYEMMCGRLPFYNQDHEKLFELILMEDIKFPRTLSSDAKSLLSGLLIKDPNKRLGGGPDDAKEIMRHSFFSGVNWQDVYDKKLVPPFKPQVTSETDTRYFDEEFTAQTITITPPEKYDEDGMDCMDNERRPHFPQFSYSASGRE
smiles,measurement,setting,value
"CC(C)CCC(=O)[C@]1(O)C(O)=C(C(=O)C(C)C)C(=O)[C@H]1CCC(C)C [TH2, tetrahydroiso-cohumulone]",kinase inhibition,PKBγ(h); 1 μg/ml,112% of control
same,kinase inhibition,PKBγ(h); 5 μg/ml,110% of control
same,kinase inhibition,PKBγ(h); 25 μg/ml,107% of control
same,kinase inhibition,PKBγ(h); 50 μg/ml,97% of control
same,kinase inhibition,PKBγ(h); 100 μg/ml,83% of control
same,kinase inhibition,Rsk3(h); 1 μg/ml,112% of control
same,kinase inhibition,Rsk3(h); 5 μg/ml,106% of control
same,kinase inhibition,Rsk3(h); 25 μg/ml,97% of control
same,kinase inhibition,Rsk3(h); 50 μg/ml,88% of control
same,kinase inhibition,Rsk3(h); 100 μg/ml,85% of control
same,kinase inhibition,TrkA(h); 1 μg/ml,110% of control
same,kinase inhibition,TrkA(h); 5 μg/ml,111% of control
same,kinase inhibition,TrkA(h); 25 μg/ml,99% of control
same,kinase inhibition,TrkA(h); 50 μg/ml,31% of control
same,kinase inhibition,TrkA(h); 100 μg/ml,25% of control
same,kinase inhibition,"MAPK1(h), ERK1; 1 μg/ml",93% of control
same,kinase inhibition,"MAPK1(h), ERK1; 5 μg/ml",83% of control
same,kinase inhibition,"MAPK1(h), ERK1; 25 μg/ml",72% of control
same,kinase inhibition,"MAPK1(h), ERK1; 50 μg/ml",75% of control
same,kinase inhibition,"MAPK1(h), ERK1; 100 μg/ml",67% of control
same,kinase inhibition,MuSK(h); 1 μg/ml,104% of control
same,kinase inhibition,MuSK(h); 5 μg/ml,101% of control
same,kinase inhibition,MuSK(h); 25 μg/ml,99% of control
same,kinase inhibition,MuSK(h); 50 μg/ml,98% of control
same,kinase inhibition,MuSK(h); 100 μg/ml,97% of control
same,kinase inhibition,CaMKIIβ(h); 1 μg/ml,103% of control
same,kinase inhibition,CaMKIIβ(h); 5 μg/ml,106% of control
same,kinase inhibition,CaMKIIβ(h); 25 μg/ml,95% of control
same,kinase inhibition,CaMKIIβ(h); 50 μg/ml,83% of control
same,kinase inhibition,CaMKIIβ(h); 100 μg/ml,66% of control
same,kinase inhibition,PKG1α(h); 1 μg/ml,103% of control
same,kinase inhibition,PKG1α(h); 5 μg/ml,112% of control
same,kinase inhibition,PKG1α(h); 25 μg/ml,97% of control
same,kinase inhibition,PKG1α(h); 50 μg/ml,92% of control
same,kinase inhibition,PKG1α(h); 100 μg/ml,73% of control
